In patent publication US20160287626A1, “METHODS OF TREATING AND PREVENTING RADIATION DAMAGE” (CANTEX PHARMACEUTICALS, INC., priority 2013, published 2016):
Entries after “also recorded” stand apart in the source; their conditions may differ.

Columns and labels:
anti-coagulant activity = settings: cited from earlier work
[1] = tested on: CD2F1 mice irradiated with 9.25 Gy; test: Survival of CD2F1 mice after 9.25 Gy total body irradiation; format: in vivo; settings: 9.25 Gy TBI
Protocol: FIG. 1 provides a graph illustrating the survival of CD2F1 mice after total body irradiation: control group with no post-irradiation treatment (o); 0.1 mL PBS administered subcutaneously at 4 h post-irradiation (□); 0.1 mL PBS administered subcutaneously at 24, 36, and 48 h post-irradiation (Δ); 0.1 mL 25 mg/kg ODSH administered subcutaneously at 4, 16, and 28 h post-irradiation (▪); and 0.1 mL 25 mg/kg ODSH administered subcutaneously at 24, 36, and 48 h post-irradiation (▴).
CD2F1 male mice (Batch #7586 DOB Dec. 23, 2012) were weighed and animals outside ±20% of the mean weight were excluded. Mice that were within ±20% of the mean weight were randomized into groups of eight animals per box. There were 24 animals per treatment group. The animals received radiation at a dose rate of 0.6 Gy/min in the AFRRI Cobalt 60 gamma radiation facility. Animals were irradiated in Lucite boxes (8 animals/box) and arranged in an array (dosimetry Feb. 25, 2010) using plastic racks. Animals were restrained for no more than 60 min and returned to cages at the end of the irradiation period.
Post-TBI, animals were untreated (naïve) or treated subcutaneously with either phosphate buffered solution (PBS) or ODSH (2-O, 3-O desulfated heparin). […] The animals were monitored daily (twice a day when necessary) for 30 days and euthanized at the completion of the observational period.

Row | Substance | anti-coagulant activity in the USP anti-coagulant assay (anti-coagulant activity) | anti-coagulant activity in the USP anti-coagulant assay (example value) (anti-coagulant activity; e.g. value) | survival over the post-irradiation period compared with naïve and PBS-treated mice ([1]; 25 mg/kg s.c. post-irradiation (24, 36 and 48 h), 30-day observation, 25 mg/kg) | mice still alive at day 10 post-irradiation ([1]; 0.1 mL 25 mg/kg s.c. at 24, 36 and 48 h post-irradiation, day 10)
1 | 2-O, 3-O desulfated heparin [ODSH] | less than 9 U/mg | 7±0.3 U | greatest percentage survival; also recorded: improves survival | 95%
2 | Unfractionated heparin [reference compound] | 165-190 U/mg | – | – | –
